# Test results: ChEMBL document CHEMBL5608186, “Design, synthesis and structure-activity relationships of novel non-ketolides: 9-Oxime clarithromycin featured with seven-to thirteen-atom-length diamine linkers at 3-OH” (Eur J Med Chem, 2024)
# How the values were obtained:
# Format in all cases: functional
# Staphylococcus aureus [1] = experiment: Bactericidal activity against methicillin-resistant Staphylococcus aureus PU 20 harboring c-ermA gene incubated for 16 to 20 hrs by CLSI based broth microdilution method; details: time 16-20 hrs
# Staphylococcus aureus [2] = experiment: Antibacterial activity against methicillin-resistant Staphylococcus aureus PU 20 harboring c-ermA gene incubated for 16 to 20 hrs by CLSI based broth microdilution method; details: time 16-20 hrs
# Staphylococcus aureus [3] = experiment: Bactericidal activity against methicillin-resistant Staphylococcus aureus PU 32 harboring i-ermA gene incubated for 16 to 20 hrs by CLSI based broth microdilution method; details: time 16-20 hrs
# Staphylococcus aureus [4] = experiment: Antibacterial activity against methicillin-resistant Staphylococcus aureus PU 32 harboring i-ermA gene incubated for 16 to 20 hrs by CLSI based broth microdilution method; details: time 16-20 hrs
# Streptococcus pyogenes [5] = experiment: Selectivity ratio of MBC for Streptococcus pyogenes 01-968 harboring i-ermB gene to MIC for Streptococcus pyogenes 01-968 harboring i-ermB gene
# Streptococcus pyogenes [6] = experiment: Bactericidal activity against Streptococcus pyogenes 01-968 harboring i-ermB gene incubated for 16 to 20 hrs by CLSI based broth microdilution method; details: time 16-20 hrs
# Streptococcus pyogenes [7] = experiment: Antibacterial activity against Streptococcus pyogenes 01-968 harboring i-ermB gene incubated for 16 to 20 hrs by CLSI based broth microdilution method; details: time 16-20 hrs
# Haemophilus influenzae [8] = experiment: Selectivity ratio of MBC for Haemophilus influenzae ATCC 49247 to MIC for Haemophilus influenzae ATCC 49247
# Haemophilus influenzae [9] = experiment: Bactericidal activity against Haemophilus influenzae ATCC 49247 incubated for 16 to 20 hrs by CLSI based broth microdilution method; details: time 16-20 hrs
# Haemophilus influenzae [10] = experiment: Antibacterial activity against Haemophilus influenzae ATCC 49247 incubated for 16 to 20 hrs by CLSI based broth microdilution method; details: time 16-20 hrs
# Streptococcus pneumoniae [11] = experiment: Selectivity ratio of MBC for Streptococcus pneumoniae 07P390 harboring c-erm gene to MIC for Streptococcus pneumoniae 07P390 harboring c-erm gene
# Streptococcus pneumoniae [12] = experiment: Bactericidal activity against Streptococcus pneumoniae 07P390 harboring c-erm gene incubated for 16 to 20 hrs by CLSI based broth microdilution method; details: time 16-20 hrs
# Streptococcus pneumoniae [13] = experiment: Antibacterial activity against Streptococcus pneumoniae 07P390 harboring c-erm gene incubated for 16 to 20 hrs by CLSI based broth microdilution method; details: time 16-20 hrs
# Streptococcus pneumoniae [14] = experiment: Selectivity ratio of MBC for Streptococcus pneumoniae PU 09 harboring mef gene to MIC for Streptococcus pneumoniae PU 09 harboring mef gene
# Streptococcus pneumoniae [15] = experiment: Bactericidal activity against Streptococcus pneumoniae PU 09 harboring mef gene incubated for 16 to 20 hrs by CLSI based broth microdilution method; details: time 16-20 hrs
# Streptococcus pneumoniae [16] = experiment: Selectivity ratio of MBC for Streptococcus pneumoniae ATCC 49619 to MIC for Streptococcus pneumoniae ATCC 49619
# Streptococcus pneumoniae [17] = experiment: Antibacterial activity against Streptococcus pneumoniae PU 09 harboring mef gene incubated for 16 to 20 hrs by CLSI based broth microdilution method; details: time 16-20 hrs
# Streptococcus pneumoniae [18] = experiment: Bactericidal activity against Streptococcus pneumoniae ATCC 49619 incubated for 16 to 20 hrs by CLSI based broth microdilution method; details: time 16-20 hrs
# Streptococcus pneumoniae [19] = experiment: Antibacterial activity against Streptococcus pneumoniae ATCC 49619 incubated for 16 to 20 hrs by CLSI based broth microdilution method; details: time 16-20 hrs
# Staphylococcus aureus [20] = experiment: Selectivity ratio of MBC for methicillin-resistant Staphylococcus aureus PU 20 harboring c-ermA gene to MIC for methicillin-resistant Staphylococcus aureus PU 20 harboring c-ermA gene
# Staphylococcus aureus [21] = experiment: Selectivity ratio of MBC for methicillin-resistant Staphylococcus aureus PU 32 harboring i-ermA gene to MIC for methicillin-resistant Staphylococcus aureus PU 32 harboring i-ermA gene
SMILES,MBC (Staphylococcus aureus [1]) [mg/L],MIC (Staphylococcus aureus [2]) [mg/L],MBC (Staphylococcus aureus [3]) [mg/L],MIC (Staphylococcus aureus [4]) [mg/L],Selectivity ratio (Streptococcus pyogenes [5]),MBC (Streptococcus pyogenes [6]) [mg/L],MIC (Streptococcus pyogenes [7]) [mg/L],Selectivity ratio (Haemophilus influenzae [8]),MBC (Haemophilus influenzae [9]) [mg/L],MIC (Haemophilus influenzae [10]) [mg/L],Selectivity ratio (Streptococcus pneumoniae [11]),MBC (Streptococcus pneumoniae [12]) [mg/L],MIC (Streptococcus pneumoniae [13]) [mg/L],Selectivity ratio (Streptococcus pneumoniae [14]),MBC (Streptococcus pneumoniae [15]) [mg/L],Selectivity ratio (Streptococcus pneumoniae [16]),MIC (Streptococcus pneumoniae [17]) [mg/L],MBC (Streptococcus pneumoniae [18]) [mg/L],MIC (Streptococcus pneumoniae [19]) [mg/L],Selectivity ratio (Staphylococcus aureus [21]),further results
CC[C@H]1OC(=O)[C@H](C)[C@@H](OC(=O)CCN2CCN(c3c(F)cc4c(=O)c(C(=O)O)cn(C5CC5)c4c3OC)CC2C)[C@H](C)[C@@H](O[C@@H]2O[C@H](C)C[C@H](N(C)C)[C@H]2O)[C@](C)(OC)C[C@@H](C)/C(=N\OCC#Cc2cncc(C(=O)NC)c2)[C@H](C)[C@H]2OC(=O)O[C@@]21C (stereo not given in full),32,32,> 256,> 256,>8,> 128,16,1,2,2,>8,> 128,16,4,4,2,1,1,0.5,–,Selectivity ratio (Staphylococcus aureus [20]): 1
CC[C@H]1OC(=O)[C@H](C)[C@@H](OC(=O)Cc2ccccn2)[C@H](C)[C@@H](O[C@@H]2O[C@H](C)C[C@H](N(C)C)[C@H]2O)[C@](C)(OC(=O)CCN2CCN(c3c(F)cc4c(=O)c(C(=O)O)cn(C5CC5)c4c3OC)CC2C)C[C@@H](C)CN(C)[C@H](C)[C@@H](O)[C@]1(C)O (stereo not given in full),8,8,> 256,128,>8,> 64,8,1,0.5,0.5,1,8,8,4,8,2,2,1,0.5,–,Selectivity ratio (Staphylococcus aureus [20]): 1
CC[C@H]1OC(=O)[C@H](C)[C@@H](OC(=O)CCN2CCN(c3cc4c(cc3F)c(=O)c(C(=O)O)cn4C3CC3)CC2)[C@H](C)[C@@H](O[C@@H]2O[C@H](C)C[C@H](N(C)C)[C@H]2O)[C@](C)(OC)C[C@@H](C)/C(=N\OCC#Cc2cncc(C(=O)NC)c2)[C@H](C)[C@H]2OC(=O)O[C@@]21C,> 256,> 256,> 256,64,>8,> 128,16,1,4,4,8,32,4,4,0.5,8,0.12,0.25,0.03,>4,–
CC[C@H]1OC(=O)[C@H](C)[C@@H](OC(=O)CCNCCCCNc2cc3c(cc2F)c(=O)c(C(=O)O)cn3C2CC2)[C@H](C)[C@@H](O[C@@H]2O[C@H](C)C[C@H](N(C)C)[C@H]2O)[C@](C)(OC)C[C@@H](C)/C(=N\OC)[C@H](C)[C@H]2OC(=O)O[C@@]21C,> 256,128,8,4,2,0.016,≤ 0.008,2,32,16,2,16,8,1,0.5,2,0.5,0.125,0.062,2,–
CC[C@H]1OC(=O)[C@H](C)[C@@H](OC(=O)CCNCCCCNc2cc3c(cc2F)c(=O)c(C(=O)O)cn3C2CC2)[C@H](C)[C@@H](O[C@@H]2O[C@H](C)C[C@H](N(C)C)[C@H]2O)[C@](C)(OC)C[C@@H](C)/C(=N\OC/C=C/c2ccc3c(c2)c(=O)c(C(N)=O)cn3CC)[C@H](C)[C@H]2OC(=O)O[C@@]21C,> 256,> 256,> 256,64,>8,> 2,0.25,1,8,8,8,2,0.25,1,0.06,2,0.06,0.12,0.06,>4,–
CC[C@H]1OC(=O)[C@H](C)[C@@H](OC(=O)CCNCCCCCCNc2cc3c(cc2F)c(=O)c(C(=O)O)cn3C2CC2)[C@H](C)[C@@H](O[C@@H]2O[C@H](C)C[C@H](N(C)C)[C@H]2O)[C@](C)(OC)C[C@@H](C)/C(=N\OC)[C@H](C)[C@H]2OC(=O)O[C@@]21C,> 256,128,16,4,>8,> 0.062,≤ 0.008,1,256,256,4,4,1,2,1,1,0.5,0.062,0.062,4,–
CC[C@H]1OC(=O)[C@H](C)[C@@H](OC(=O)CCNCCCCNc2cc3c(cc2F)c(=O)c(C(=O)O)cn3C2CC2)[C@H](C)[C@@H](O[C@@H]2O[C@H](C)C[C@H](N(C)C)[C@H]2O)[C@](C)(OC)C[C@@H](C)/C(=N\OCC#Cc2cncc(NC(C)=O)c2)[C@H](C)[C@H]2OC(=O)O[C@@]21C,> 256,> 256,64,32,>8,> 4,0.5,1,4,4,8,0.5,0.06,1,0.03,1,0.03,0.016,0.016,2,–
